Results reported in patent US9579328B2, “Prostaglandin and vasoconstrictor pharmaceutical compositions and methods of use” (ALLERGAN, INC., priority 2012, dated 2017).
Like-named read-outs stand apart in the source and are kept apart here.

Assays:
[1] = system: conjunctiva of patients with bilateral open-angle glaucoma or ocular hypertension; conditions: bimatoprost 0.03% once daily, cited from earlier work
[2] = system: palpebral conjunctiva of Dutch-Belted (pigmented) rabbits; conditions: left eye, Bimatoprost 0.03% b.i.d. one month, n = 19; cited from earlier work
[3] = system: conjunctiva of patients; assay: Phase 3 clinical studies, bimatoprost 0.03%/timolol 0.5% Combination versus bimatoprost monotherapy: conjunctival hyperaemia; format: in vivo, human
Source text: Approximately 60% of patients being treated for glaucoma require two or more agents (adjuvant therapy) to control the intraocular pressure. For this reason, combination therapies, in which two pharmaceutically active agents are combined in the same formulation, have been developed to decrease complexity in the treatment regimen, improve patient compliance, and to minimize the exposure to excipients with possible toxicity such as benzalkonium chloride. Currently, the most commonly prescribed adjuvant therapy includes a beta-blocker and a prostaglandin analogue. For this reason, Allergan has formulated bimatoprost 0.03% together with timolol 0.5% (Combination).

[4] = system: eyes of conscious Beagle dogs; conditions: bimatoprost 0.1%, latanoprost 0.005%, cited from earlier work
[5] = system: rabbit isolated jugular veins; assay: Vasorelaxation in histamine-precontracted rabbit isolated jugular veins; format: cell-based
Source text: FIG. 3. Concentration-response curves for (FIG. 3A) bimatoprost and (FIG. 3B) latanoprost free acid in histamine-precontracted endothelium-intact and endothelium-denuded rabbit isolated jugular veins. Results are expressed as mean±S.E.M. of 5-6 animals. FIG. 3A adapted from Chen J et al., Invest Ophthalmol Vis Sci 2004; 45:ARVO E-Abstract 2609; FIG. 3B extends results reported in Chen J et al., Invest Ophthalmol Vis Sci 2004; 45:ARVO E-Abstract 2609; and Pharmacology Review of New Drug Application 21-275. FDA/Center for Drug Evaluation and Research. 2001;Part 1 and Part 2:1-107. Available online at http://www.fda.gov/cder/foi/nda/2001/21275_Lumigan.htm.
FIG. 4. Concentration-response curves for (FIG. 4A) bimatoprost and (FIG. 4B) latanoprost free acid in the presence or absence of indomethacin in endothelium-intact rabbit isolated jugular veins. Results are expressed as mean±S.E.M. of 7 animals and extend previous results reported in Pharmacology Review of New Drug Application 21-275. FDA/Center for Drug Evaluation and Research. 2001;Part 1 and Part 2:1-107. Available online at http://www.fda.gov/cder/foi/nda/2001/21275_Lumigan.htm.
FIG. 5. Concentration-response curves for (FIG. 5A) bimatoprost and (FIG. 5B) latanoprost free acid in the presence of 100 μM L-NAME or 100 (μM D-NAME control in endothelium-intact rabbit isolated jugular veins. Results are expressed as mean±S.E.M. of 6 animals. *P≦0.05, compared to responses in D-NAME pretreated tissues at the same concentration, paired t-test.
The pharmacological mechanism of ocular surface hyperemia elicited by bimatoprost and latanoprost was investigated using the rabbit jugular vein preparation as a quantitative in vitro model (Chen J. et al., Br J Pharmacol 1995; 116:3035-3041). In these studies, tissues were suspended in jacketed organ baths containing Krebs buffer with 1 μM indomethacin (endothelium-intact and -denuded) or in its absence (endothelium-intact) and precontracted with 3 μM histamine. Vasorelaxant and contractile activity were determined as a percentage (%) of the control tone elicited by histamine. Statistical comparisons for the vasorelaxant activity consisted of testing for significance of difference at each of the concentrations tested using the Student'-s t-test for unpaired samples (indomethacin vs no indomethacin) and paired samples (L-NAME vs D-NAME). Differences were considered statistically significant for P-values ≦0.05.
Indomethacin is a cyclooxygenase inhibitor that is routinely used in prostanoid receptor assays (Chen J et al., Current protocols in pharmacology. New York: John Wiley & Sons, Inc., 2001; 4.18.1-4.18.41). Studies of intact and viable isolated tissues, such as the rabbit jejunum (Ferreira S H, Herman A G, Vane J R., Br J Pharmacol 1976; 56:469-477) and human bronchial muscle (Haye-Legrand I, Cerrina J, Raffestin B et al., J Pharmacol Exp Ther 1986; 239:536-541), found the basal output of prostaglandins to be 8-23 pg/mg of tissue at baseline or over 30 min collection periods. In the presence of 1.7 and 2.79 μM indomethacin, the amounts of prostaglandins generated in isolated tissues become negligible (Botting J H, Salzmann R., Br J Pharmacol 1974; 50:119-124; Haye-Legrand I, Cerrina J, Raffestin B et al., J Pharmacol Exp Ther 1986; 239:536-541). The 1 μM concentration of indomethacin in the tissue bath, in our experience, is sufficient to prevent biosynthesis of prostanoids within isolated vascular tissue preparations (Alster P, Wennmalm Å., Eur J Pharmacol 1983; 86:441-446; Chen J et al., Current protocols in pharmacology. New York: John Wiley & Sons, Inc., 2001; 4.18.1-4.18.41). At substantially higher concentrations, indomethacin has been reported to lose selectivity for prostanoid biosynthesis inhibition (Aboulafia J et al., Br J Pharmacol 1976; 58:223-228; Goodfriend T L, Simpson R U., Br J Pharmacol 1981; 72:247-255; Northover B J, Br J Pharmacol 1971; 41:540-551; Sawdy R et al., Br J Pharmacol 1998; 125:1212-1217). […]

[6] = system: bulbar conjunctiva of patients; conditions: bimatoprost 0.03% q.d. for 60 days; biopsies at day 7 and impression cytology; cited from earlier work
[7] = system: palpebral conjunctiva of New Zealand White (albino) rabbits; conditions: left eye, n = 16, cited from earlier work
[8] = system: palpebral conjunctiva of Cynomolgus monkeys; conditions: cited from earlier work
[9] = Pooled 192024-018T & 021T (3 months), first line
[10] = Pooled 192024-018T & 021T (3 months), second line
[11] = Bimatoprost 0.001% q.i.d. one month
[12] = Bimatoprost 0.01% q.i.d. one month
[13] = Bimatoprost 0.1% q.i.d. one month

## CCNC(=O)CCC/C=C\C[C@@H]1[C@@H](/C=C/[C@@H](O)CCc2ccccc2)[C@H](O)C[C@@H]1O [Bimatoprost, bimatoprost]
[1]; 39 patients, slit-lamp biomicroscopy
  time at which frequency and severity of hyperemia peaked after the first instillation: approximately 1 day
[1]; month-long study
  hyperemia returning to near baseline levels: ≤ 28 days
[1]
  clinical significance of the hyperemia: not clinically significant
[2]
  Incidence of mononuclear cell infiltration in palpebral conjunctiva, Lower Eyelid, Minimal/mild: 12 number of animals
  Incidence of mononuclear cell infiltration in palpebral conjunctiva, Lower Eyelid, Moderate: 0 number of animals
  Incidence of mononuclear cell infiltration in palpebral conjunctiva, Upper Eyelid, Minimal/mild: 6 number of animals
[3]; 192024-026T (3 weeks)
  Incidence of Conjunctival hyperaemia Detected on Biomicroscopy, Biomicro ≧ +1: 18.9%
  Incidence of Conjunctival hyperaemia Reported as a Treatment-Related AE (Rx-rel AE): 27.8%
[3]; 192024-504T (3 months)
  Incidence of Conjunctival hyperaemia Detected on Biomicroscopy, Biomicro ≧ +1: 21.1%
  Incidence of Conjunctival hyperaemia Reported as a Treatment-Related AE (Rx-rel AE): 29.9%
[3]; [9]
  Incidence of Conjunctival hyperaemia Detected on Biomicroscopy, Biomicro ≧ +1: 30.9%
  Incidence of Conjunctival hyperaemia Reported as a Treatment-Related AE (Rx-rel AE): 38.5%
[3]; [10]
  Incidence of Conjunctival hyperaemia Detected on Biomicroscopy, Biomicro ≧ +1: 41.5%
  Incidence of Conjunctival hyperaemia Reported as a Treatment-Related AE (Rx-rel AE): 43.4%
[4]; D-NAME treated control eyes, scale 0=none, 0.5=trace, 1=mild, 2=moderate, 3=severe
  ocular surface hyperemic response (severity): trace to mild
[4]; L-NAME 1% treated eyes, PGE2 0.01%, 0-6 h
  effect of L-NAME on elicited ocular surface hyperemia: blocked
[5]; endothelium-intact histamine precontracted tissues, P≦0.05 paired t-test
  vasorelaxant response in presence of 100 μM L-NAME compared to 100 μM D-NAME control: significantly inhibited
[5]; endothelium-intact tissues, each concentration tested
  difference in effects with and without 1 μM indomethacin: no statistically significant differences
[6]
  evidence of inflammation: no evidence of inflammation
[7]; [11]
  Incidence of minimal-to-mild mononuclear cell infiltration in palpebral conjunctiva, Lower Eyelid: 12 number of animals
  Incidence of minimal-to-mild mononuclear cell infiltration in palpebral conjunctiva, Upper Eyelid: 4 number of animals
[7]; [12]
  Incidence of minimal-to-mild mononuclear cell infiltration in palpebral conjunctiva, Lower Eyelid: 13 number of animals
  Incidence of minimal-to-mild mononuclear cell infiltration in palpebral conjunctiva, Upper Eyelid: 6 number of animals
[7]; [13]
  Incidence of minimal-to-mild mononuclear cell infiltration in palpebral conjunctiva, Lower Eyelid: 14 number of animals
  Incidence of minimal-to-mild mononuclear cell infiltration in palpebral conjunctiva, Upper Eyelid: 8 number of animals
[8]; n = 6, right eye, bimatoprost 0.03% b.i.d. for 12 months
  Incidence of inflammation in palpebral conjunctiva (number of animals with histopathologic findings), Upper Eyelid, Chronic active: 5
[8]; n = 6, right eye, bimatoprost 0.1% b.i.d. for 12 months
  Incidence of inflammation in palpebral conjunctiva (number of animals with histopathologic findings), Upper Eyelid, Chronic active: 3
[8]; n = 8, right eye, bimatoprost 0.03% q.d. for 12 months
  Incidence of inflammation in palpebral conjunctiva (number of animals with histopathologic findings), Upper Eyelid, Chronic active: 4
